pIC50: −log10 of the molar value. Like-named read-outs stand apart in the source and are kept apart here.
Key:
[1] = target: BTK enzyme (recombinant full-length BTK, hBTK) (Homo sapiens (Human), UniProt Q06187); test: BTK enzymatic activity LANCE TR-FRET assay; format: biochemical; details: 50 pM hBTK, 25 μM ATP, 2 μM biotin-A5-peptide; compound range 1 μM to 0.017 nM; read-out: BTK binding IC50
[2] = tested on: adenosine uptake into HeLa cells; test: [3H]Adenosine uptake assay in HeLa cells; format: cell-based; details: [3H]adenosine accumulation in HeLa cells, compound range 10 μM to 0.032 nM, read-out: ADU inhibition IC50
Method in brief: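 HeLa cells in HBSS + 5% FBS were preincubated 30 min at ambient temperature with compound (ten-point 1:3 series, 10 µM–[…] final), then given [3H]adenosine (added as a 500 nM solution) for 60 min. Cell-associated label was read by scintillating-plate proximity counting; IC50 from 4-parameter fit of cps versus log concentration.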

Chain of BTK enzyme (recombinant full-length BTK, hBTK) (Q06187 whole entry): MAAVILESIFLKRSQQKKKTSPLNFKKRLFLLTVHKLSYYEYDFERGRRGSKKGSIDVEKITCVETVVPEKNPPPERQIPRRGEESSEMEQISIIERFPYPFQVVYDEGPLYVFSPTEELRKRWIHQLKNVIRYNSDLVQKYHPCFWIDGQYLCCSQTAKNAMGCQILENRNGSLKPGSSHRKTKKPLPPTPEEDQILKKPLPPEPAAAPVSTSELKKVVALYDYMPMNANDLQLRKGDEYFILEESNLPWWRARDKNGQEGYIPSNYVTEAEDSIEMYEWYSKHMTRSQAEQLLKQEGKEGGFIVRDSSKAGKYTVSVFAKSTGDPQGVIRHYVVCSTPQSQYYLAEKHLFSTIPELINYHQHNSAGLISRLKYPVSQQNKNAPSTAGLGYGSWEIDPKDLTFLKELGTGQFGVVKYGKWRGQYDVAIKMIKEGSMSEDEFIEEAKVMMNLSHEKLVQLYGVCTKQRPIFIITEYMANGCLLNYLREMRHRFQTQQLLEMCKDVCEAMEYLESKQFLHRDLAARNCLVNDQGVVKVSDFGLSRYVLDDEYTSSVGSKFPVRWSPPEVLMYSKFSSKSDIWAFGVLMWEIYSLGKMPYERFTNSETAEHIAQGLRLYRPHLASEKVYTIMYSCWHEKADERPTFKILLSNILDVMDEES

| SMILES | pIC50 [1] | pIC50 ([2]; Homo sapiens, HeLa) | pIC50 [2] |
| --- | --- | --- | --- |
| COc1cc(-c2nc([C@@H]3CC[C@H]4CCC(=O)N4C3)n3ccnc(N)c23)ccc1[C@@](C)(O)c1cccc(C2CC2)c1 [Example 99, (6R,8aS)-6-(8-amino-1-{4-[(1S)-1-(3-cyclopropylphenyl)-1-hydroxyethyl]-3-methoxyphenyl}imidazo [1,5-a]pyrazin-3-yl)hexahydroindolizin-3(2H)-one] | 8.00 | 5.93 | – |
| CC(O)(c1cccc(C(F)(F)F)c1)c1ccc(-c2nc([C@@H]3CC[C@H]4CCC(=O)N4C3)n3ccnc(N)c23)c(Cl)c1 (stereo partly drawn) [Example 100, (6R,8aS)-6-[8-amino-1-(2-chloro-4-{1-hydroxy-1-[3-(trifluoromethyl)phenyl]ethyl}phenyl)imidazo [1,5-a]pyrazin-3-yl]hexahydroindolizin-3(2H)-one] | 7.76 | 6.51 | – |
| C[C@](O)(c1cccc(C(F)(F)F)c1)c1ccc(-c2nc([C@@H]3CC[C@H]4CCC(=O)N4C3)n3ccnc(N)c23)c(F)c1 [Example 101, (6R,8aS)-6-[8-amino-1-(2-fluoro-4-{(1S)-1-hydroxy-1-[3-(trifluoromethyl)phenyl]ethyl}phenyl)imidazo [1,5-a]pyrazin-3-yl]hexahydroindolizin-3(2H)-one] | 6.11 | 6.43 | – |
| C[C@@](O)(c1cccc(C(F)(F)F)c1)c1ccc(-c2nc([C@@H]3CC[C@H]4CCC(=O)N4C3)n3ccnc(N)c23)c(F)c1 [Example 102, (6R,8aS)-6-[8-amino-1-(2-fluoro-4-{(1R)-1-hydroxy-1-[3-(trifluoromethyl)phenyl]ethyl}phenyl)imidazo [1,5-a]pyrazin-3-yl]hexahydroindolizin-3(2H)-one] | 8.80 | 5.77 | – |
| Cc1cc([C@@](C)(O)c2cccc(C(F)(F)F)c2)ccc1-c1nc([C@@H]2CC[C@H]3CCC(=O)N3C2)n2ccnc(N)c12 [Example 103, (6R,8aS)-6-[8-amino-1-(4-{(1R)-1-hydroxy-1-[3-(trifluoromethyl)phenyl]-ethyl}-2-methylphenyl)imidazo [1,5-a]pyrazin-3-yl]hexahydroindolizin-3(2H)-one] | 6.00 | 6.31 | – |
| Cc1cc([C@](C)(O)c2cccc(C(F)(F)F)c2)ccc1-c1nc([C@@H]2CC[C@H]3CCC(=O)N3C2)n2ccnc(N)c12 [Example 104, (6R,8aS)-6-[8-amino-1-(4-{(1S)-1-hydroxy-1-[3-(trifluoromethyl)phenyl]ethyl}-2-methylphenyl)imidazo [1,5-a]pyrazin-3-yl]hexahydroindolizin-3(2H)-one] | 7.97 | 5.77 | – |
| CC(O)(c1cccc(C(F)(F)F)c1)c1ccc(-c2nc([C@@H]3CC[C@H]4CCC(=O)N4C3)n3ccnc(N)c23)c(C(F)(F)F)c1 (stereo partly drawn) [Example 105, (6R,8aS)-6-{8-amino-1-[4-{1-hydroxy-1-[3-(trifluoromethyl)phenyl]ethyl}-2-(trifluoromethyl)phenyl]imidazo[1,5-a]pyrazin-3-yl}hexahydroindolizin-3(2H)-one] | 6.00 | 6.07 | – |
| Nc1nccn2c([C@@H]3CC[C@H]4CCC(=O)N4C3)nc(-c3ccc([C@@](O)(CO)c4cccc(C(F)(F)F)c4)cc3)c12 [Example 106, (6R,8aS)-6-[8-amino-1-(4-{(1S)-1,2-dihydroxy-1-[3-(trifluoromethyl)phenyl]ethyl}phenyl)imidazo [1,5-a]pyrazin-3-yl]hexahydroindolizin-3(2H)-one] | 6.82 | 5.16 | – |
| Nc1nccn2c([C@@H]3CC[C@H]4CCC(=O)N4C3)nc(-c3ccc([C@](O)(CO)c4cccc(C(F)(F)F)c4)cc3)c12 [Example 107, (6R,8aS)-6-[8-amino-1-(4-{(1R)-1,2-dihydroxy-1-[3-(trifluoromethyl)phenyl]ethyl}phenyl)imidazo [1,5-a]pyrazin-3-yl]hexahydroindolizin-3(2H)-one] | 6.03 | 6.28 | – |
| Nc1nccn2c([C@@H]3CC[C@H]4CCC(=O)N4C3)nc(-c3ccc(C(O)(c4cccc(C(F)(F)F)c4)C(F)F)cc3)c12 (stereo partly drawn) [Example 108, (6R,8aS)-6-[8-amino-1-(4-{2,2-difluoro-1-hydroxy-1-[3-(trifluoromethyl)phenyl]ethyl}phenyl)imidazo [1,5-a]pyrazin-3-yl]hexahydroindolizin-3(2H)-one] | 6.17 | – | 6.33 |
| CC(C)(c1cccc([C@@](C)(O)c2ccc(-c3nc([C@@H]4CC[C@H]5CCC(=O)N5C4)n4ccnc(N)c34)cc2)c1)C(F)(F)F [Example 109, (6R,8aS)-6-[8-amino-1-(4-{(1S)-1-hydroxy-1-[3-(2,2,2-trifluoro-1,1-dimethylethyl)phenyl]ethyl}phenyl)imidazo[1,5-a]pyrazin-3-yl]hexahydroindolizin-3(2H)-one] | 7.35 | 6.05 | – |
| CC(C)(c1cccc([C@](C)(O)c2ccc(-c3nc([C@@H]4CC[C@H]5CCC(=O)N5C4)n4ccnc(N)c34)cc2)c1)C(F)(F)F [Example 110, (6R,8aS)-6-[8-amino-1-(4-{(1R)-1-hydroxy-1-[3-(2,2,2-trifluoro-1,1-dimethylethyl)phenyl]ethyl}phenyl)imidazo[1,5-a]pyrazin-3-yl]hexahydroindolizin-3(2H)-one] | 9.02 | 5.77 | – |
| C[C@](O)(c1ccc(-c2nc([C@@H]3CC[C@H]4CCC(=O)N4C3)n3ccnc(N)c23)cc1)c1ccc(C(F)(F)F)s1 [Example 111, (6R,8aS)-6-[8-amino-1-(4-{(1S)-1-hydroxy-1-[5-(trifluoromethyl)thiophen-2-yl]ethyl}phenyl)imidazo [1,5-a]pyrazin-3-yl]hexahydroindolizin-3(2H)-one] | 6.00 | – | 6.14 |
| Nc1nccn2c([C@@H]3CC[C@H]4CCC(=O)N4C3)nc(-c3ccc(C(O)(c4cccc(C(F)(F)F)c4)C(F)F)cc3)c12 (stereo partly drawn) [Example 112, (6R,8aS)-6-[8-amino-1-(4-{2,2-difluoro-1-hydroxy-1-[3-(trifluoromethyl)phenyl]ethyl}phenyl)imidazo [1,5-a]pyrazin-3-yl]hexahydroindolizin-3(2H)-one] | 8.25 | – | 5.73 |
| C[C@](O)(c1ccc(-c2nc([C@@H]3CC[C@H]4CCC(=O)N4C3)n3ccnc(N)c23)cc1)c1ccc(C(F)(F)F)s1 [Example 113, (6R,8aS)-6-[8-amino-1-(4-{(1S)-1-hydroxy-1-[5-(trifluoromethyl)thiophen-2-yl]ethyl}phenyl)imidazo [1,5-a]pyrazin-3-yl]hexahydroindolizin-3(2H)-one] | 7.51 | – | 5.67 |
| CN1CC[C@@H]2CC[C@@H](c3nc(-c4ccc([C@@](C)(O)c5cccc(C(F)(F)F)c5)cc4)c4c(N)nccn34)CN2C1=O [Example 114, (4aS,7R)-7-[8-amino-1-(4-{(1R)-1-hydroxy-1-[3-(trifluoromethyl)phenyl]ethyl}phenyl)imidazo [1,5-a]pyrazin-3-yl]-2-methyloctahydro-1H-pyrido[1,2-c]pyrimidin-1-one] | 9.66 | 6.05 | – |
| CN1CC[C@@H]2CC[C@@H](c3nc(-c4ccc([C@](C)(O)c5cccc(C(F)(F)F)c5)cc4)c4c(N)nccn34)CN2C1=O [Example 115, (4aS,7R)-7-[8-amino-1-(4-{(1S)-1-hydroxy-1-[3-(trifluoromethyl)phenyl]ethyl}phenyl)imidazo [1,5-a]pyrazin-3-yl]-2-methyloctahydro-1H-pyrido[1,2-c]pyrimidin-1-one] | 7.28 | 6.76 | – |
| C[C@](O)(c1ccc(-c2nc([C@@H]3CC[C@H]4CCC(=O)N4C3)n3c(Cl)cnc(N)c23)cc1)c1cccc(C2CC2)c1 [Example 116, (6R,8aS)-6-(8-amino-5-chloro-1-{4-[(1S)-1-(3-cyclopropylphenyl)-1-hydroxyethyl]phenyl}imidazo[1,5-a]pyrazin-3-yl)hexahydroindolizin-3(2H)-one] | 9.06 | 6.34 | – |
| C[C@@](O)(c1ccc(-c2nc([C@@H]3CC[C@H]4CCC(=O)N4C3)n3c(Cl)cnc(N)c23)cc1)c1cccc(C2CC2)c1 [Example 117, (6R,8aS)-6-(8-amino-5-chloro-1-{4-[(1R)-1-(3-cyclopropylphenyl)-1-hydroxyethyl]phenyl}imidazo[1,5-a]pyrazin-3-yl)hexahydroindolizin-3(2H)-one] | 9.92 | 6.02 | – |
| CN1CC[C@H]2CC[C@H](c3nc(-c4ccc([C@@](C)(O)c5cccc(C(F)(F)F)c5)cc4)c4c(N)nccn34)CN2C1=O [Example 118, (4aR,7S)-7-[8-amino-1-(4-{(1R)-1-hydroxy-1-[3-(trifluoromethyl)phenyl]ethyl}phenyl)imidazo [1,5-a]pyrazin-3-yl]-2-methyloctahydro-1H-pyridol[1,2-c]pyrimidin-1-one] | 7.08 | 5.83 | – |
| CC(C)N1CC(=O)N2C[C@H](c3nc(-c4ccc([C@@](C)(O)c5cccc(C(F)(F)F)c5)cc4)c4c(N)nccn34)CC[C@H]2C1 [Example 119, (7R,9aS)-7-(8-amino-1-(4-{(1R)-1-hydroxy-1-[3-(trifluoromethyl)phenyl]ethyl}phenyl)imidazo [1,5-a]pyrazin-3-yl]-2-(1-methylethyl)octahydro-4H-pyrido[1,2-a]pyrazin-4-one] | 7.48 | 5.62 | – |
| CC(C)N1CC(=O)N2C[C@@H](c3nc(-c4ccc([C@@](C)(O)c5cccc(C(F)(F)F)c5)cc4)c4c(N)nccn34)CC[C@@H]2C1 [Example 120, (7S,9aR)-7-[8-amino-1-(4-{(1R)-1-hydroxy-1-[3-(trifluoromethyl)phenyl]ethyl}phenyl)imidazo [1,5-a]pyrazin-3-yl]-2-(1-methylethyl)octahydro-4H-pyrido[1,2-a]pyrazin-4-one] | 8.29 | 5.33 | – |

— patent US10214546B2, “Btk inhibitors” (MERCK SHARP & DOHME CORP., priority 2014, dated 2019)
